Source: the NIST ThermoML archive (doi:10.1016/j.fluid.2014.09.014)

Test: refractive index (other wavelength) (dimensionless); xn = mol fraction of the nth substance listed
Details: 101 kPa, Liquid, Standard Abbe refractometry

CC(C)OC(C)C [diisopropyl ether] + CO
refractive index
Details | Wavelength=40.47 nm | Wavelength=435.8 nm | Wavelength=486.1 nm | Wavelength=546.1 nm | Wavelength=587.6 nm | Wavelength=589.3 nm | Wavelength=632.8 nm | Wavelength=644 nm | Wavelength=706.5 nm
293.15 K, x2 = 0 | 1.37888 | 1.37585 | 1.37241 | 1.36955 | 1.36806 | 1.36801 | 1.36674 | 1.36644 | 1.36501
293.15 K, x2 = 0.0423 | 1.37892 | 1.37589 | 1.37246 | 1.3696 | 1.36811 | 1.36806 | 1.36678 | 1.36648 | 1.36504
293.15 K, x2 = 0.0424 | 1.37884 | 1.37583 | 1.37238 | 1.36953 | 1.36803 | 1.36798 | 1.3667 | 1.3664 | 1.36476
293.15 K, x2 = 0.082 | 1.37887 | 1.37585 | 1.37242 | 1.36956 | 1.36807 | 1.36802 | 1.36674 | 1.36644 | 1.365
293.15 K, x2 = 0.0822 | 1.37872 | 1.37569 | 1.37228 | 1.36942 | 1.36795 | 1.36789 | 1.36663 | 1.36633 | 1.36487
293.15 K, x2 = 0.1171 | 1.37858 | 1.37556 | 1.37214 | 1.3693 | 1.36783 | 1.36777 | 1.36649 | 1.36619 | 1.36476
293.15 K, x2 = 0.1271 | 1.37862 | 1.3756 | 1.37217 | 1.36933 | 1.36784 | 1.36779 | 1.36651 | 1.36622 | 1.36479
293.15 K, x2 = 0.1827 | 1.37814 | 1.37514 | 1.37173 | 1.36889 | 1.36741 | 1.36736 | 1.36608 | 1.36579 | 1.36436
293.15 K, x2 = 0.2162 | 1.37791 | 1.37492 | 1.37149 | 1.36867 | 1.36719 | 1.36713 | 1.36585 | 1.36556 | 1.36414
293.15 K, x2 = 0.251 | 1.37812 | 1.37513 | 1.37172 | 1.36888 | 1.36741 | 1.36735 | 1.36609 | 1.36579 | 1.36436
293.15 K, x2 = 0.3298 | 1.37709 | 1.37411 | 1.37071 | 1.36792 | 1.36645 | 1.3664 | 1.36512 | 1.36482 | 1.3634
293.15 K, x2 = 0.3577 | 1.37556 | 1.37264 | 1.36925 | 1.36647 | 1.365 | 1.36494 | 1.36367 | 1.36338 | 1.36197
293.15 K, x2 = 0.4497 | 1.37463 | 1.3717 | 1.36834 | 1.36558 | 1.36412 | 1.36407 | 1.3628 | 1.36251 | 1.3611
293.15 K, x2 = 0.4525 | 1.37517 | 1.37223 | 1.36886 | 1.36609 | 1.36462 | 1.36457 | 1.3633 | 1.36301 | 1.3616
293.15 K, x2 = 0.522 | 1.37278 | 1.36987 | 1.36658 | 1.36382 | 1.36239 | 1.36233 | 1.36109 | – | 1.35939
293.15 K, x2 = 0.5543 | 1.37252 | 1.36963 | 1.36633 | 1.36357 | 1.36214 | 1.36209 | 1.36085 | 1.36055 | 1.35915
293.15 K, x2 = 0.609 | 1.36927 | 1.3664 | 1.36316 | 1.3644 | 1.35903 | 1.35897 | 1.35774 | 1.35745 | 1.35606
293.15 K, x2 = 0.6529 | 1.36767 | 1.36484 | 1.36161 | 1.35891 | 1.35751 | 1.35746 | 1.35624 | 1.35595 | 1.35456
293.15 K, x2 = 0.7504 | 1.36362 | 1.36086 | 1.35769 | 1.35503 | 1.35365 | 1.3536 | 1.3524 | 1.35211 | –
293.15 K, x2 = 0.804 | 1.35916 | 1.35647 | 1.35338 | 1.35075 | 1.34938 | 1.34933 | 1.34816 | 1.34788 | 1.34652
293.15 K, x2 = 0.807 | 1.35902 | 1.35632 | 1.35323 | 1.3506 | 1.34924 | 1.34919 | 1.34801 | 1.34773 | 1.34638
293.15 K, x2 = 0.8727 | 1.35351 | 1.35088 | 1.34784 | 1.34528 | 1.34394 | 1.34389 | 1.34273 | 1.34246 | 1.34113
293.15 K, x2 = 0.9233 | 1.34636 | 1.34384 | 1.34087 | 1.33839 | 1.33708 | 1.33703 | 1.3359 | 1.33564 | 1.33435
293.15 K, x2 = 0.9253 | 1.34824 | 1.34571 | 1.34275 | 1.34023 | 1.33891 | 1.33886 | 1.33772 | 1.33746 | 1.33617
293.15 K, x2 = 0.9527 | 1.34496 | 1.34296 | 1.33953 | 1.33705 | 1.33574 | 1.33569 | 1.33457 | 1.33431 | 1.33303
293.15 K, x2 = 0.9773 | 1.34138 | 1.33894 | 1.33601 | 1.33356 | 1.33228 | 1.33223 | 1.33112 | 1.33086 | 1.32963
293.15 K, x2 = 0.989 | 1.34018 | 1.33775 | 1.33487 | 1.33242 | 1.33114 | 1.3311 | 1.33 | 1.32975 | 1.32951
293.15 K, x2 = 0.9964 | 1.33872 | 1.33631 | 1.33342 | 1.33098 | 1.3297 | 1.32965 | 1.32856 | 1.32831 | 1.32708
298.15 K, x2 = 0 | 1.37607 | 1.37308 | 1.36965 | 1.36683 | 1.36535 | – | – | – | –
298.15 K, x2 = 0.0423 | 1.37664 | 1.37305 | 1.36963 | 1.36681 | 1.36534 | – | – | – | –
298.15 K, x2 = 0.0424 | 1.37602 | 1.37303 | 1.36961 | 1.36679 | 1.36531 | – | – | – | –
298.15 K, x2 = 0.082 | 1.37599 | 1.373 | 1.36958 | 1.36677 | 1.36528 | – | – | – | –
298.15 K, x2 = 0.0822 | 1.37598 | 1.373 | 1.36957 | 1.36678 | 1.3653 | – | – | – | –
298.15 K, x2 = 0.1171 | 1.3758 | 1.37283 | 1.36942 | 1.36661 | 1.36514 | – | – | – | –
298.15 K, x2 = 0.1271 | 1.37584 | 1.37286 | 1.36944 | 1.36664 | 1.36515 | – | – | – | –
298.15 K, x2 = 0.1827 | 1.37543 | 1.37246 | 1.36905 | 1.36626 | 1.36478 | – | – | – | –
298.15 K, x2 = 0.2162 | 1.37664 | 1.37305 | 1.36963 | 1.36681 | 1.36534 | – | – | – | –
298.15 K, x2 = 0.251 | 1.37352 | 1.37234 | 1.36895 | 1.36616 | 1.3647 | – | – | – | –
298.15 K, x2 = 0.3298 | 1.37448 | 1.37153 | 1.36815 | 1.36537 | 1.36391 | – | – | – | –
298.15 K, x2 = 0.3577 | 1.37299 | 1.37006 | 1.36672 | 1.36396 | 1.36251 | – | – | – | –
298.15 K, x2 = 0.4497 | 1.37205 | 1.36914 | 1.36584 | 1.36306 | 1.36163 | – | – | – | –
298.15 K, x2 = 0.4525 | 1.37262 | 1.36969 | 1.36637 | 1.3636 | – | – | – | – | –
298.15 K, x2 = 0.522 | 1.37025 | 1.36737 | 1.36409 | 1.36134 | – | – | – | – | –
298.15 K, x2 = 0.5543 | 1.3698 | 1.36692 | 1.36368 | 1.36093 | – | – | – | – | –
298.15 K, x2 = 0.609 | 1.36677 | 1.36396 | – | 1.35803 | – | – | – | – | –
298.15 K, x2 = 0.6529 | 1.36523 | 1.36244 | 1.35923 | 1.35655 | – | – | – | – | –
298.15 K, x2 = 0.7504 | 1.36122 | 1.35846 | 1.35533 | 1.3527 | – | – | – | – | –
298.15 K, x2 = 0.804 | 1.35681 | 1.35412 | 1.35108 | 1.34846 | – | – | – | – | –
298.15 K, x2 = 0.807 | 1.3567 | 1.35401 | 1.35096 | 1.34834 | – | – | – | – | –
298.15 K, x2 = 0.8727 | 1.35132 | 1.34872 | 1.34572 | 1.34316 | – | – | – | – | –
298.15 K, x2 = 0.9233 | 1.34416 | 1.34165 | 1.33873 | 1.33624 | – | – | – | – | –
298.15 K, x2 = 0.9253 | 1.34607 | 1.34355 | 1.3406 | 1.33811 | – | – | – | – | –
298.15 K, x2 = 0.9527 | 1.34281 | 1.34033 | 1.3374 | 1.33494 | – | – | – | – | –
298.15 K, x2 = 0.9773 | 1.33922 | 1.3368 | 1.3339 | 1.33146 | – | – | – | – | –
298.15 K, x2 = 0.989 | 1.33798 | 1.3356 | 1.3327 | 1.33028 | – | – | – | – | –
298.15 K, x2 = 0.9964 | 1.33656 | 1.3342 | 1.33128 | 1.32888 | – | – | – | – | –
